Target: T1, Recombinant Human 5′-Nucleotidase (CD73) (Homo sapiens, UniProt P21589)
T1 construct: CHO derived CD73 (Trp27-Lys547), with a C-terminal 6-His tag; 6-His (C); purchased R&D 5795-EN; host or cells: CHO
T1 sequence (P21589 27-547): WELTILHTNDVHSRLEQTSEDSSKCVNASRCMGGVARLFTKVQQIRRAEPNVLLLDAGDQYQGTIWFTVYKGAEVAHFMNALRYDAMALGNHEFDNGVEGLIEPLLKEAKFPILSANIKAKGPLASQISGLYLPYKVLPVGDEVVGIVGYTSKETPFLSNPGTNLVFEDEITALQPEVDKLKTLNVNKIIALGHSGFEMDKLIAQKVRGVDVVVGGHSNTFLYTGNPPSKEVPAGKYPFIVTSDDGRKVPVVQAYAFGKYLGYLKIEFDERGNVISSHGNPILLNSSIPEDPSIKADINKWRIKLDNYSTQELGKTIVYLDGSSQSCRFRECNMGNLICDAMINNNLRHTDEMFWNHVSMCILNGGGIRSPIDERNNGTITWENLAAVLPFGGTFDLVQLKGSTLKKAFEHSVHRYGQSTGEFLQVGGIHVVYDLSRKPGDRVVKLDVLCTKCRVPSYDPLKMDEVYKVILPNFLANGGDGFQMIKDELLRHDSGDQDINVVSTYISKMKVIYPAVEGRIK
Assay: CD73 Enzyme Assay (PiColorLock inorganic phosphate detection, AMP substrate)
Format: biochemical
Settings: human CD73 0.5 nM, AMP 30 μM, 20 min at 37° C., absorbance 635 nm; read-out: Potency (IC50)
Excerpt: Soluble recombinant CD73 catalyzes the conversion of adenosine monophosphate (AMP) to adenosine and inorganic phosphate. The phosphate detection reagent, PiColorLock™ (Innova Bioscience, Cat #303-0125) is based on the change in absorbance of the dye malachite green in the presence of inorganic phosphate (Pi) and this property can be exploited to measure any enzyme that generates Pi. Recombinant Human 5′-Nucleotidase (CD73) (R&D #5795-EN, CHO derived CD73 (Trp27-Lys547), with a C-terminal 6-His tag) was used in the enzymatic assay. This assay, run in a 384-well plate format (Corning® NBS™ 384 well plates, Cat #3640), is a generic method for measuring inorganic phosphate. The basic assay procedure involves two steps: 1) Enzyme reaction: The CD73 enzyme (R&D #5795-EN) is incubated in the presence or absence of compounds. AMP (sigma, cat #01930) is added to start the […] reaction. 2) Detection step: Gold mix is added to the assay system, then stabilizers are added. After incubation the absorbance of the solution is read at OD 635 nm. The recorded OD signal is proportional to the enzyme activity.
Briefly, 25 μl human CD73 (0.5 nM final concentration) in the enzymatic buffer solutions (20 mM Tris, 25 mM NaCl, 1 mM MgCl2, pH 7.5, 0.005% Tween-20) were mixed with various concentrations of the test compound (dissolved in 100% DMSO). These solutions were incubated for 15 min at 25° C., and subsequently 25 μl AMP (30 μM final concentration) was added to start the reaction. The final reaction mixture of enzyme-substrate-compound was incubated for 20 min at 37° C. Meanwhile ‘Gold mix’ was prepared shortly before use by adding 1/100 vol. of accelerator to the PiColorLock™ Gold reagent. 12 μL/well of the ‘Gold mix’ was added to assay plate containing 50 μL enzyme reaction buffer and incubated at 25° C. for 5 min. 5 μL/well stabilizer was added to the assay plate and incubated at 25° C. for 30 min. The absorbance of the well solutions was measured at 635 nm on a Spark 10M instrument (TECAN).
The percent (%) inhibition at each concentration of a compound was calculated relative to the […] value in the Max and Min control wells contained within each assay plate. The Max control wells contained enzyme and substrate as 0% inhibition, and the Min control wells only contained substrate without enzyme as 100% inhibition. The concentrations and percent inhibition values for a test compound are plotted and the concentration of the compound required to achieve 50% inhibition (IC50) was determined with a four-parameter logistic dose response equation.

IC50 | SMILES
1 to 9.9 nM | O=P(O)(O)CP(=O)(O)OC[C@H]1O[C@@H](c2cnc3c(NC4CCCC4)cc(Cl)nn23)[C@H](O)[C@@H]1O [Example S1, (((((2R,3S,4R,5S)-5-(6-chloro-8-(cyclopentylamino)imidazo[1,2-b]pyridazin-3-yl)-3,4-dihydroxytetrahydrofuran-2-yl)methoxy)(hydroxy)phosphoryl)methyl)phosphonic acid]
10 to 99 nM | C[C@H](Nc1cc(Cl)nn2c(C3O[C@H](COP(=O)(O)CP(=O)(O)O)[C@@H](O)[C@@H]3F)cnc12)c1ccccc1F (stereo partly drawn) [Example S19, (((((2R,3R,4S)-5-(6-chloro-8-(((S)-1-(2-fluorophenyl)ethyl)amino)imidazo[1,2-b]pyridazin-3-yl)-4-fluoro-3-hydroxytetrahydrofuran-2-yl)methoxy)(hydroxy)phosphoryl)methyl)phosphonic acid]
1 to 9.9 nM | O=P(O)(O)CP(=O)(O)OC[C@H]1OC(c2cnc3c(N4CCCC[C@H]4c4ccccc4)cc(Cl)nn23)[C@H](O)[C@@H]1O (stereo partly drawn) [Example S27, (((((2R,3S,4R)-5-(6-chloro-8-((S)-2-phenylpiperidin-1-yl)imidazo[1,2-b]pyridazin-3-yl)-3,4-dihydroxytetrahydrofuran-2-yl)methoxy)(hydroxy)phosphoryl)methyl)phosphonic acid]
1 to 9.9 nM | O=P(O)(O)CP(=O)(O)OC[C@H]1O[C@@H](c2cnc3c(NC45CCC(CC4)C5)cc(Cl)nn23)[C@H](O)[C@@H]1O [Example S33, [({[(2R,3S,4R,5S)-5-(8-{bicyclo[2.2.1]heptan-1-ylamino}-6-chloroimidazo[1,2-b]pyridazin-3-yl)-3,4-dihydroxyoxolan-2-yl]methoxy}(hydroxy)phosphoryl)methyl]phosphonic acid]
1 to 9.9 nM | CN(c1cc(Cl)nn2c([C@@H]3O[C@H](COP(=O)(O)CP(=O)(O)O)[C@@H](O)[C@H]3O)cnc12)C1CCCC1 [Example S32]
1 to 9.9 nM | C[C@H](Nc1cc(Cl)nn2c(C3O[C@H](COP(=O)(O)CP(=O)(O)O)[C@@H](O)[C@H]3O)cnc12)c1cccc(F)c1 (stereo partly drawn) [Example S16, (((((2R,3S,4R)-5-(6-chloro-8-(((S)-1-(3-fluorophenyl)ethyl)amino)imidazo[1,2-b]pyridazin-3-yl)-3,4-dihydroxytetrahydrofuran-2-yl)methoxy)(hydroxy)phosphoryl)methyl)phosphonic acid]
< 1 nM | C[C@H](Nc1cc(Cl)nn2c(C3O[C@H](COP(=O)(O)CP(=O)(O)O)[C@@H](O)[C@H]3O)cnc12)c1ccc(F)cc1 (stereo partly drawn) [Example S17, (((((2R,3S,4R)-5-(6-chloro-8-(((S)-1-(4-fluorophenyl)ethyl)amino)imidazo[1,2-b]pyridazin-3-yl)-3,4-dihydroxytetrahydrofuran-2-yl)methoxy)(hydroxy)phosphoryl)methyl)phosphonic acid]
10 to 99 nM | O=P(O)(O)CP(=O)(O)OC[C@H]1O[C@H](c2csc3c(NC4CCCC4)nc(Cl)nc23)[C@H](O)[C@@H]1O [Example S11]

The remaining lines, values behind:

SMILES | IC50
O=P(O)(O)CP(=O)(O)OC[C@H]1OC(c2cnc3c(N4CCC(F)(F)CC4)cc(Cl)nn23)[C@H](O)[C@@H]1O (stereo partly drawn) [Example S29, (((((2R,3S,4R)-5-(6-chloro-8-(4,4-difluoropiperidin-1-yl)imidazo[1,2-b]pyridazin-3-yl)-3,4-dihydroxytetrahydrofuran-2-yl)methoxy)(hydroxy)phosphoryl)methyl)phosphonic acid] | 1 to 9.9 nM
C[C@H](Nc1cc(Cl)nn2c(C3O[C@H](COP(=O)(O)CP(=O)(O)O)[C@@H](O)[C@H]3O)cnc12)c1ccccc1 (stereo partly drawn) [Example S18, (((((2R,3S,4R)-5-(6-chloro-8-(((S)-1-phenylethyl)amino)imidazo[1,2-b]pyridazin-3-yl)-3,4-dihydroxytetrahydrofuran-2-yl)methoxy)(hydroxy)phosphoryl)methyl)phosphonic acid] | 1 to 9.9 nM
O=P(O)(O)CP(=O)(O)OC[C@H]1OC(c2cnc3c(OC4CCCC4)cc(Cl)nn23)[C@H](O)[C@@H]1O (stereo partly drawn) [Example S30, (((((2R,3S,4R)-5-(6-chloro-8-(cyclopentyloxy)imidazo[1,2-b]pyridazin-3-yl)-3,4-dihydroxytetrahydrofuran-2-yl)methoxy)(hydroxy)phosphoryl)methyl)phosphonic acid] | 1 to 9.9 nM
O=P(O)(O)CP(=O)(O)OC[C@H]1O[C@@H](c2csc3c(N4CC5CCCC5C4)nc(Cl)nc23)[C@H](O)[C@@H]1O (stereo partly drawn) [Example S41, [({[(2R,3S,4R,5S)-5-(2-chloro-4-{hexahydro-1H-cyclopenta[c]pyrrol-2-yl}thieno[3,2-d]pyrimidin-7-yl)-3,4-dihydroxyoxolan-2-yl]methoxy}(hydroxy)phosphoryl)methyl]phosphonic acid] | 10 to 99 nM
O=P(O)(O)CP(=O)(O)OC[C@H]1O[C@@H](c2cnc3c(N4CCC[C@H]4c4ccccc4)cc(Cl)nn23)[C@H](O)[C@@H]1O [Example S3, (((((2R,3S,4R,5S)-5-(6-chloro-8-((S)-2-phenylpyrrolidin-1-yl)imidazo[1,2-b]pyridazin-3-yl)-3,4-dihydroxytetrahydrofuran-2-yl)methoxy)(hydroxy)phosphoryl)methyl)phosphonic acid] | 1 to 9.9 nM
O=P(O)(O)CP(=O)(O)OC[C@H]1O[C@@H](c2cnc3c(NC4CCCC4)cc(Cl)nn23)[C@@H](F)[C@@H]1O [Example S31, (((((2R,3R,4S,5S)-5-(6-chloro-8-(cyclopentylamino)imidazo[1,2-b]pyridazin-3-yl)-4-fluoro-3-hydroxytetrahydrofuran-2-yl)methoxy)(hydroxy)phosphoryl)methyl)phosphonic acid] | 10 to 99 nM
O=P(O)(O)CP(=O)(O)OC[C@H]1O[C@@H](c2cnc3c(N4CCC(F)(F)C4)cc(Cl)nn23)[C@H](O)[C@@H]1O [Example S35, (((((2R,3S,4R,5S)-5-(6-chloro-8-(3,3-difluoropyrrolidin-1-yl)imidazo[1,2-b]pyridazin-3-yl)-3,4-dihydroxytetrahydrofuran-2-yl)methoxy)(hydroxy)phosphoryl)methyl)phosphonic acid] | 1 to 9.9 nM
O=P(O)(O)CP(=O)(O)OC[C@H]1OC(c2cnc3c(N4CCCC4)cc(Cl)nn23)[C@H](O)[C@@H]1O (stereo partly drawn) [Example S20, (((((2R,3S,4R)-5-(6-chloro-8-(pyrrolidin-1-yl)imidazo[1,2-b]pyridazin-3-yl)-3,4-dihydroxytetrahydrofuran-2-yl)methoxy)(hydroxy)phosphoryl)methyl)phosphonic acid] | 1 to 9.9 nM
O=P(O)(O)CP(=O)(O)OC[C@H]1OC(c2cnc3c(N4CC5CCCC5C4)cc(Cl)nn23)[C@@H](F)[C@@H]1O (stereo partly drawn) [Example S24, (((((2R,3R,4S)-5-(6-chloro-8-(hexahydrocyclopenta[c]pyrrol-2 (1H)-yl)imidazo[1,2-b]pyridazin-3-yl)-4-fluoro-3-hydroxytetrahydrofuran-2-yl)methoxy)(hydroxy)phosphoryl)methyl)phosphonic acid] | 1 to 9.9 nM
